System in the first data set: not given
Test: not given
The note with it: intravenous (IV) formulation; cited from earlier work.
Take Serelaxin: the first-phase pharmacokinetic half-life was 5.4 min.

A further data set concerns the target T1, human RXFP1 (Homo sapiens, UniProt Q9HBX9).
T1 construct: expressed in transfected cells; host or cells: HEK293
T1 sequence (Q9HBX9 1-757): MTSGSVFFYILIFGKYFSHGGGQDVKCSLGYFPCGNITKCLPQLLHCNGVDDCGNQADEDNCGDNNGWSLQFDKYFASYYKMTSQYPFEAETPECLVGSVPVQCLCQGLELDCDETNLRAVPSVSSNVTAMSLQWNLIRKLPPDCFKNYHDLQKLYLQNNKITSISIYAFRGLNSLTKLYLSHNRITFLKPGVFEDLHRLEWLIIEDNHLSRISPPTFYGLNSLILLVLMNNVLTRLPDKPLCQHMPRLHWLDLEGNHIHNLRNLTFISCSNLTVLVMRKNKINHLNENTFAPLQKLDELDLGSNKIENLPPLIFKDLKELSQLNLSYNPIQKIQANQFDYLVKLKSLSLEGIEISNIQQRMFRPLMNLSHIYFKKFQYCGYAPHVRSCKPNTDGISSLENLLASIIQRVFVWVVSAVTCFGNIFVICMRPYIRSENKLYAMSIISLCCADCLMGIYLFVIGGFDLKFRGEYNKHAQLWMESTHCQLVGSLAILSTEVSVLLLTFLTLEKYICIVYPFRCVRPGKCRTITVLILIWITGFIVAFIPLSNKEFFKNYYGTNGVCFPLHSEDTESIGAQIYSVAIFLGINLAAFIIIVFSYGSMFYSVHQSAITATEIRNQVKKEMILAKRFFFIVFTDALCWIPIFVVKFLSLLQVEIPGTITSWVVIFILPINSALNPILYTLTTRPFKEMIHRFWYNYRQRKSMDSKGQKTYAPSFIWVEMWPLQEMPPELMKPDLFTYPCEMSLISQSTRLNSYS
The data set can be described thus: hRXFP1 HEK293 cAMP assay. Particulars: HEK293 cells stably expressing human RXFP1; intracellular cAMP by HTRF; 30 min at room temperature. Type of data set: cell-based. How it is done: RXFP1 Cyclic Adenosine Monophosphate (cAMP) Assays. Human embryonic kidney cells 293 (HEK293) cells and HEK293 cells stably expressing human RXFP1, were cultured in MEM medium supplemented with 10% qualified FBS, and 300 μg/ml hygromycin (Life Technologies). Cells were dissociated and suspended in assay buffer. The assay buffer was HBSS buffer (with calcium and magnesium) containing 20 mM HEPES, 0.05% BSA, and 0.5 mM IBMX. Cells (3000 cells per well, except 1500 cell per well for HEK293 cells stably expressing human RXFP1) were added to 384-well Proxiplates (Perkin-Elmer). Cells were immediately treated with test compounds in DMSO (2% final) at final concentrations in the range of 0.010 nM to 50 μM. Cells were incubated for 30 min at room temperature. The level of intracellular cAMP was determined using the HTRF HiRange cAMP assay reagent kit (Cisbio) according to manufacturer's instructions. Solutions of cryptate conjugated anti-cAMP and d2 fluorophore-labelled cAMP were made in a supplied lysis buffer separately. Upon completion of the reaction, the cells were lysed with equal volume of the d2-cAMP solution and anti-cAMP solution. After a 1 h room temperature incubation, time-resolved fluorescence intensity was measured using the Envision (Perkin-Elmer) at 400 nm excitation and dual emission at 590 nm and 665 nm. A calibration curve was constructed with an external cAMP standard at concentrations ranging from 2.7 μM to 0.1 μM by plotting the fluorescent intensity ratio from 665 nm emission to the intensity from the 590 nm emission against cAMP concentrations. The potency and activity of a compound to […] cAMP production was then determined by fitting to a 4-parametric logistic equation from a plot of cAMP level versus compound concentrations.
The examples disclosed below were tested in the human RXFP1 (hRXFP1) HEK293 cAMP assay described above and found to have agonist activity. Tables 1-3, lists EC50 values in the hRXFP1 HEK293 cAMP assay measured for the examples.
A general note: cAMP levels reflect the balance of adenylyl cyclase and phosphodiesterase activity.
By EC50 is commonly meant the midpoint of the concentration-response curve. High values mean a less potent agent, low ones a more potent agent. `COc1ccc(C2=NOC3CC(CO)CC23)cc1C(=O)Nc1cc2ccccc2cc1C(=O)Nc1ccc(F)c(C(F)(F)F)c1` (single isomer, unassigned) [Example 13, N-(4-fluoro-3-(trifluoromethyl)phenyl)-3-(5-(5-(hydroxymethyl)-3a,5,6,6a-tetrahydro-4H-cyclopenta[d]isoxazol-3-yl)-2-methoxybenzamido)-2-naphthamide] gave an EC50 of 320 nM.

Consider `COc1ccc(-n2ncccc2=O)cc1C(=O)Nc1cc2ccccc2cc1C(=O)Nc1ccc(F)c(C(F)(F)F)c1` [Example 12, N-(4-fluoro-3-(trifluoromethyl)phenyl)-3-(2-methoxy-5-(6-oxopyridazin-1(6H)-yl)benzamido)-2-naphthamide], for which the EC50 was determined as 1400 nM.

The molecule `COc1ccc(-c2cc(C(=O)O)ccc2F)cc1C(=O)Nc1cc2ccc(Br)cc2cc1C(=O)Nc1ccc(F)c(C(F)(F)F)c1` [Example 8, 3′-((6-bromo-3-((4-fluoro-3-(trifluoromethyl)phenyl)carbamoyl)naphthalen-2-yl)carbamoyl)-6-fluoro-4′-methoxy-[1,1′-biphenyl]-3-carboxylic acid] had an EC50 of 2600 nM.

On to `COc1ccc(N2CCCS2(=O)=O)cc1C(=O)Nc1cc2ccccc2cc1C(=O)Nc1ccc(F)c(C(F)(F)F)c1` [Example 11, 3-(5-(1,1-dioxidoisothiazolidin-2-yl)-2-methoxybenzamido)-N-(4-fluoro-3-(trifluoromethyl)-phenyl)-2-naphthamide], for which it took 2000 nM to reach a half-maximal effect (EC50).

`COc1ccc(-c2cc([C@H](OC(=O)NC3CCC3)C(F)(F)F)ccc2F)cc1C(=O)Nc1cc2ccccc2cc1C(=O)Nc1ccc(F)c(C(F)(F)F)c1` [Example 5, (S)-2,2,2-trifluoro-1-(6-fluoro-3′-((3-((4-fluoro-3-(trifluoromethyl)phenyl)carbamoyl)-naphthalen-2-yl)carbamoyl)-4′-methoxy-[1,1′-biphenyl]-3-yl)ethyl cyclobutylcarbamate]: a half-maximal effect (EC50) was put at 11 nM.

On to `COc1ccc(-c2cc(C(O)C(=O)O)ccc2F)cc1C(=O)Nc1cc2ccccc2cc1C(=O)Nc1ccc(F)c(C(F)(F)F)c1` (single isomer, unassigned) [Example 4, 2-(6-fluoro-3′-((3-((4-fluoro-3-(trifluoromethyl)phenyl)carbamoyl)naphthalen-2-yl)carbamoyl)-4′-methoxy-[1,1′-biphenyl]-3-yl)-2-hydroxyacetic acid], for which the EC50 was 490 nM.

`COc1ccc(S(=O)(=O)CCCO)cc1C(=O)Nc1cc2ccccc2cc1C(=O)Nc1ccc(F)c(C(F)(F)F)c1` [Example 9, N-(4-fluoro-3-(trifluoromethyl)phenyl)-3-(5-((3-hydroxypropyl)sulfonyl)-2-methoxybenzamido)-2-naphthamide] had an EC50 of 4800 nM.

`COc1ccc(-c2cc(C(NC(=O)C3CCOCC3)C(=O)O)ccc2F)cc1C(=O)Nc1cc2ccccc2cc1C(=O)Nc1ccc(F)c(C(F)(F)F)c1` (stereo not drawn) [Example 2, 2-(6-fluoro-3′-((3-((4-fluoro-3-(trifluoromethyl)phenyl)carbamoyl)naphthalen-2-yl)carbamoyl)-4′-methoxy-[1,1′-biphenyl]-3-yl)-2-(tetrahydro-2H-pyran-4-carboxamido)acetic acid] registered an EC50 of 4.2 nM.

For `COc1ccc(C2=NOC3CC(CO)CC23)cc1C(=O)Nc1cc2ccccc2cc1C(=O)Nc1ccc(F)c(C(F)(F)F)c1` (single isomer, unassigned) [Example 14, N-(4-fluoro-3-(trifluoromethyl)phenyl)-3-(5-(5-(hydroxymethyl)-3a,5,6,6a-tetrahydro-4H-cyclopenta[d]isoxazol-3-yl)-2-methoxybenzamido)-2-naphthamide], it took 60 nM to reach a half-maximal effect (EC50).

In turn, `COc1ccc(C#C[C@H](C)O)cc1C(=O)Nc1cc2ccccc2cc1C(=O)Nc1ccc(F)c(C(F)(F)F)c1` [Example 10, (S)—N-(4-fluoro-3-(trifluoromethyl)phenyl)-3-(5-(3-hydroxybut-1-yn-1-yl)-2-methoxybenzamido)-2-naphthamide] displayed an EC50 of 5000 nM.

Regarding `COc1ccc(C2=NOC3CC(O)CC23)cc1C(=O)Nc1cc2ccccc2cc1C(=O)Nc1ccc(F)c(C(F)(F)F)c1` (single isomer, unassigned) [Example 15, N-(4-fluoro-3-(trifluoromethyl)phenyl)-3-(5-(5-hydroxy-3a,5,6,6a-tetrahydro-4H-cyclopenta[d]isoxazol-3-yl)-2-methoxybenzamido)-2-naphthamide], the 50% effective concentration (EC50) turned out to be 190 nM.

As for `COc1ccc(-c2cc(C(NC(=O)C3CCOCC3)C(=O)O)ccc2F)cc1C(=O)Nc1cc2cc(Br)c(Br)cc2cc1C(=O)Nc1ccc(F)c(C(F)(F)F)c1` (stereo not drawn) [Example 3, 2-(3′-((6,7-dibromo-3-((4-fluoro-3-(trifluoromethyl)phenyl)-carbamoyl)naphthalen-2-yl)carbamoyl)-6-fluoro-4′-methoxy-[1,1′-biphenyl]-3-yl)-2-(tetrahydro-2H-pyran-4-carboxamido)acetic acid], the EC50 was determined as 190 nM.

With `COc1ccc(-c2cc(C(=O)O)ccc2F)cc1C(=O)Nc1cc2c(Br)cccc2cc1C(=O)Nc1ccc(F)c(C(F)(F)F)c1` [Example 6, 3′-((8-bromo-3-((4-fluoro-3-(trifluoromethyl)phenyl)carbamoyl)naphthalen-2-yl)carbamoyl)-6-fluoro-4′-methoxy-[1,1′-biphenyl]-3-carboxylic acid], it took 1300 nM to reach a half-maximal effect (EC50).

`COc1ccc(-c2cc(C(=O)O)ccc2F)cc1C(=O)Nc1cc2ccccc2cc1C(=O)Nc1ccc(F)c(C(F)(F)F)c1` [Example 1, 6-fluoro-3′-((3-((4-fluoro-3-(trifluoromethyl)phenyl)carbamoyl)naphthalen-2-yl)carbamoyl)-4′-methoxy-[1,1′-biphenyl]-3-carboxylic acid]: the concentration giving a half-maximal response (EC50) is 1100 nM.

These data come from patent US20250100960A1, “NAPHTHALENE AND QUINOLINE ANALOGS AS RXFP1 AGONISTS” (BRISTOL-MYERS SQUIBB COMPANY, priority 2021, published 2025).
